This is an account of results in patent US20140093598A1, “COMPOUNDS AND EXTRACTS FROM GNETUM AFRICANUM AND ANTI-INFLAMMATORY ACTIVITY RELATED THERETO” (PHARMAFRI-CAN INC., priority 2010, published 2014).

Read-outs that look alike come from different tables or passages of the source.

The test system of experiment [1] is LPS induced TNF-α production in RAW 264.7 cells. In words: LPS-induced TNF-α production in RAW 264.7 cells, ELISA of culture supernatants. The settings on record: for IC50: Mus musculus, RAW264.7. The experiment is classed as cell-based. The procedure: Cell culture supernatants were used for the determination of TNF-α production by ELISA (R&D systems).
RAW 264.7 cells were treated with G. africanum leaf and stem extracts (200 μg/ml) for 1 hour and were then induced with LPS (10 μg/ml) for 18 hr. Cell culture supernatants were used for the determination of TNF-α production by ELISA (R&D systems).
Methanol, ethyl acetate and 95% ethanol stem extracts were further analyzed in a dose dependent manner (25-200 μg/ml).
(In an ELISA, binding on a coated surface is turned into a signal by an enzyme label.)

The test system is the same in experiment [2]. The settings on record: reported by Iyori et al. 2008; cited from earlier work.

For the compound `Oc1ccc(/C=C/c2cc(O)cc(O)c2)cc1` [resveratrol, (E)-5-(4-hydroxystyryl)benzene-1,3-diol], the IC50 (usually the midpoint of a concentration-inhibition curve) in experiment [1] (resveratrol 1 μM-100 μM, 1 hour pre-treatment, LPS 10 μg/ml for 18 hr, read-out: IC50, anti-inflammatory activity of resveratrol (FIG. 3)) stood at 50 µM; in experiment [1] (same value as 50 μM, restated in μg/ml, read-out: IC50, anti-inflammatory activity of resveratrol (FIG. 3), expressed by mass) it was 12 µg/mL. For the same compound, the “Inhibition of LPS-induced TNF-α production” value in experiment [1] (resveratrol at 50 μM and 100 μM, FIG. 3A) is given as “inhibited LPS-induced TNF-α production”. Moreover, in experiment [2], the “Inhibition of LPS induced TNF-α production” value was “could inhibit LPS induced TNF-α production”.
